Data set [1] relates to Aedes aegypti larvae. The experiment in a line: Larvicidal activity against Aedes aegypti third instar larvae. The following applies: for LC50 ± SEM (LCL-UCL): L3 larvae. On the procedure: Eggs of the Rockefeller strain of Aedes aegypti were hatched in filtered water, and larvae were reared under controlled conditions (28 ± 1 °C; 12 h photoperiod) until reaching the third instar (L3). […] Each test condition, including controls, was run in quadruplicate. […] Formulations (PEOANIB, PNFTANE, PNFTENE) were applied with the same protocol used for DMSO-dissolved samples, keeping the final solvent concentration at 1% (v/v) of the total water volume.
Negative controls contained either DMSO (200 µL) alone or blank nanomicelles (NBr) at a volume matching the highest concentration tested, whereas the positive control comprised temephos at 1 µg mL^−1. After 14 days of preparation of the formulation, an activity confirmation test was performed at fixed concentrations of PNFTANE (70 ppm) and PNFTENE (5 ppm) formulations. The assays were performed in quadruplicate.

Data set [2] relates to A. aegypti. The following applies: cited from earlier work.
Data set [3] relates to Leishmania amazonensis. Also on record: method as in doi:10.1590/S0103-50532009000600011. The following applies: cited from earlier work.
Details of data set [4]: method as in PMID 20406629. The following applies: Wistar rats, 5–10 mg/kg; cited from earlier work.
Data set [5] addresses acetylcholinesterase from A. aegypti larvae homogenate (Aedes aegypti, UniProt Q6A2E2). The experiment in a line: AChE inhibition (Ellman), A. aegypti L3 larvae homogenate. Format: biochemical. The following applies: for inhibition at 1500 µg/mL: at 1.5 mg∙mL^−1 (1500 µg mL^−1), read-out: Inhibition Rate (%) ± SD. On the procedure: (§1) A total of 250 third instar larvae (370.1 mg) and 250 adults (163.8 mg) of A. aegypti, together with 150 adults of D. melanogaster (134.6 mg), were collected. Each group was placed in a separate 50 mL Falcon tube and frozen at −20 °C to arrest metabolic activity. After freezing, 5 mL of ultrapure water were added to each tube, and the contents were mechanically homogenized on ice using an IKA Ultra-Turrax® homogenizer (model T10BS32) at speed setting 4 for 5 min. The resulting homogenates were transferred to centrifuge tubes and spun at 10,000 rpm for 5 min at 4 °C in a refrigerated centrifuge. Supernatants were carefully collected, aliquoted and stored at −20 °C for biochemical analyses performed within 24 h. After preparation, the homogenates contained 50 insects/mL (larvae) and 30 insects/mL (adult Aedes aegypti and Drosophila melanogaster). These preparations were subsequently used for acetylcholinesterase inhibition activity, total-protein quantification by the BCA method, and calculation of specific catalytic units per individual.
(§2) Percentage inhibition of AChE was determined by the standard Ellman colorimetric method, with minor adaptations. […] After a 10 min incubation at 30 °C, 20 µL of DTNB (3.0 mM) and 20 µL of acetylthiocholine iodide (10.0 mM) were added. Plates were then incubated for a further 30 min at 30 °C, and end-point absorbance was read at 405 nm and pathlength 0.62 cm on a SpectraMax® 190 microplate reader (Molecular Devices^TM, SoftMax® Pro 5; serial no. SMP500-11007-TIQG).
(In Ellman's method for cholinesterases, released thiocholine reacts with DTNB.)

For data set [6], the target named is T1, acetylcholinesterase from D. melanogaster adults homogenate (Drosophila melanogaster, UniProt P07140).
T1 construct: from tissue; host or cells: whole-body homogenate supernatant of adult D. melanogaster (laboratory colony)
The experiment in a line: AChE inhibition (Ellman), D. melanogaster adult homogenate. Format: biochemical. The following applies: for inhibition at 1500 µg/mL: at 1.5 mg∙mL^−1 (1500 µg mL^−1), read-out: Inhibition Rate (%) ± SD. The protocol:
as §1, §2

The target of data set [7] is acetylcholinesterase from A. aegypti adults homogenate (Aedes aegypti, UniProt Q6A2E2). Description: AChE inhibition (Ellman), A. aegypti adult homogenate. The class given is biochemical. The following applies: for inhibition at 1500 µg/mL: at 1.5 mg∙mL^−1 (1500 µg mL^−1), read-out: Inhibition Rate (%) ± SD. The protocol:
as §1, §2

Data set [8] has as its system macrophages. Also on record: method as in doi:10.1590/S0103-50532009000600011. The following applies: cited from earlier work.
The test system of data set [9] is Trypanosoma evansi. Also on record: method as in PMID 27988226. The following applies: at 0.5–2.0%; cited from earlier work.
For data set [10], the target named is T2, Acetylcholinesterase (AChE) from Electrophorus electricus (Electrophorus electricus, UniProt O42275).
T2 construct: purchased C3389-2KU
The experiment in a line: AChE inhibition (Ellman), commercial enzyme. The class given is biochemical. The following applies: for IC50: commercial enzyme 0.15 U mL^−1. The protocol: as §2

In data set [11] the test system is Aedes aegypti females. The experiment in a line: Adulticidal bottle bioassay (WHO/CDC) against Aedes aegypti females. The class given is in vivo. The following applies: preliminary tests. On the procedure: A. aegypti colony was maintained at 26 ± 1 °C, 80 ± 5% relative humidity, and a 12 h light–dark cycle. […] Glass bottles (295 mL) were coated with 1 mL of essential oil solution in analytical-grade acetone. Bottles were left open for 10 min to allow complete solvent evaporation, then acclimated for 1 h with the cap removed. Each bottle received 15–25 unfed adult female A. aegypti and was exposed to 200–50 ppm of the test compound. Deltamethrin (K-Othrine®) at 10 ppm served as the positive control, and acetone-treated bottles as the negative control. Assays were conducted in quadruplicate, with mortality recorded at 15 min intervals over 90 min of continuous exposure. After 90 min, mosquitoes were gently transferred to 500 mL cylindrical paper containers covered with nylon mesh and kept under colony conditions (26 °C, 80% RH, 12 h photoperiod) for knockdown assessment 24 h post-exposure.

Data set [12] has as its system Artemia salina nauplii. Description: Toxicity test on Artemia salina nauplii (non-target). The class given is in vivo. The following applies: 24 h, metanauplii. The protocol: Toxicity assays with Artemia salina followed the procedure of Meyer and collaborators with adaptations like those of [86, 107]. For cyst hatching, 25 mg of eggs were placed in a cuboid-glass vessel containing 600 mL of artificial seawater (38 g L^−1 in distilled water) and incubated at 28–30 °C under continuous illumination from a 40 W incandescent lamp. After 24 h, the nauplii (first larval stage) were transferred to fresh saline and reared for an additional 24 h under the same conditions to obtain metanauplii (second larval stage), which were used in the bioassays. Ten metanauplii were exposed to 10 mL of saline containing the test samples dissolved in DMSO. […] After dosing, organisms were maintained at 28–30 °C under artificial light for 24 h. Mortality defined as immobility or sinking to the bottom was recorded, and LC50 values were calculated for each sample. All experiments were performed in triplicate with independent replicates under identical conditions to ensure reproducibility.

Data set [13] has as its system Artemia salina. The following applies: cited from earlier work.

Structures are written as SMILES. Converted amounts (≈) assume the structure as drawn. “And” between values parts separate entries of the source, which are not always exact repeats. Identical values can stand only once.

As a reminder, the mortality is the percentage killed. In the case of `COP(=S)(OC)Oc1ccc(Sc2ccc(OP(=S)(OC)OC)cc2)cc1` [Temephos, reference compound], in [1] (Aedes aegypti, read-out: larval mortality), the mortality at 1 ppm came out at 100%.

With `CC1=CCC2CC1C2(C)C` (stereo not drawn) [α-pinene], the “LC50 (adulticidal activity of minor constituents)” value in data set [2] is 17.3–56.5 ppm.

The IC50 is the concentration that gives 50% inhibition. For the compound `N=C(N)c1ccc(OCCCCCOc2ccc(C(=N)N)cc2)cc1` [pentamidine, reference compound], in data set [3], the IC50 is reported as 4.8 µg/mL (≈ 14.1 µM).

As a reminder, the LC50 is the concentration that kills 50% of the test population. One may read the inhibition as how much of the control response was suppressed. On to `O=[N+]([O-])CCc1ccccc1` [NFTANE, 1-Nitro-2-phenylethane], for which the “effect on blood pressure” value in data set [4] was “significantly lowering blood pressure”. Also, the “LC50 ± SEM (LCL-UCL)” value in [1] (24 h exposure) is 84.8 ppm and 85.8 ppm; in data set [1] (48 h exposure) it was 83.6 ppm. Also, the LC50 in data set [1] (exposure time not given) was 84–87 ppm. The inhibition at 1500 µg/mL in data set [5], in data set [6] and in data set [7] was no more than 10% each time. The “fold less cytotoxic to macrophages than pentamidine” value in data set [8] was “approximately 2.5 fold”. In addition, the IC50 in [3] is 40 µg/mL (≈ 265 µM); in data set [10], 1250 µM. In addition, in data set [9], the “activity against Trypanosoma evansi” value was “shows activity”. Also, in [10], the “Slope ± SEM” value was found to be 1.175 ± 0.066. The “adulticidal effects compared with EOANIB” value in data set [11] is given as “comparable adulticidal effects to EOANIB”.

`O=[N+]([O-])C=Cc1ccccc1` [NFTENE, 1-Nitro-2-phenylethene]: the results for the “LC50 ± SEM (LCL-UCL)” value in data set [1] (24 h exposure) and in data set [1] (48 h exposure) were 10.9 ppm and 7.7 ppm, respectively. Also, the “Slope ± SEM” value is given as 0.72 ± 0.06 in [5], 2.02 ± 0.20 in data set [6], 0.86 ± 0.07 in [7] and 1.283 ± 0.094 in data set [10]. The compound further showed an inhibition at 25 µg/mL in [5] (25 μg.mL^−1) of 15.5%. Further, the inhibition at 50 µg/mL in [5] (50 μg.mL^−1) was 14.9%. In addition, the inhibition at 100 µg/mL in data set [5] (100 μg.mL^−1) stood at 23.1%; in data set [7] (100 μg.mL^−1) it was 4.5%. For the same compound, the inhibition at 250 µg/mL in [5] (250 μg.mL^−1) came to 26.8%; in data set [7] (250 μg.mL^−1), 11.2%. Moreover, the figures for the inhibition at 500 µg/mL in data set [5] (500 μg.mL^−1), in data set [6] (500 μg.mL^−1) and in data set [7] (500 μg.mL^−1) were 38%, 2.4% and 15.1%, respectively. The results for the inhibition at 1000 µg/mL in [5] (1000 μg.mL^−1), in data set [6] (1000 μg.mL^−1) and in data set [7] (1000 μg.mL^−1) were 57.1%, 9.1% and 26.6%, respectively. The inhibition at 1500 µg/mL in [5] turned out to be 71.8 ± 2.21%; in [6], 18.4 ± 2.11%; in data set [7], 34 ± 2.18%. Besides, in data set [12], the “LC50 ± SEM (CI)” value turned out to be 1.9 ppm. The IC50 in [6] was 21000 µM; in [10], 998 µM. Further, in [11] (100 ppm), the adult mortality entry is “no adult mortality”.

On to `CCOP(=S)(OCC)Oc1nc(Cl)c(Cl)cc1Cl` [chlorpyrifos], for which, in data set [13], the median lethal concentration (LC50) is given as 0.38 ppm.

For `C=C1CC/C=C(\C)CC[C@@H]2[C@@H]1CC2(C)C` [β-caryophyllene], the “LC50 (adulticidal activity of minor constituents)” value in data set [2] is recorded as 26 ppm.

As to `CCCSP(=O)(OCC)Oc1ccc(Br)cc1Cl` (centres unmarked) [profenofos], the LC50 in [13] is 7.71 ppm.
